# Experimental data from patent publication US11286268B1, “EIF4E-inhibiting compounds and methods” (EFFECTOR THERAPEUTICS, INC., priority 2019, dated 2022).
# pIC50: −log10 of the molar value.
# Biological target: recombinant eIF4E (Homo sapiens (Human), UniProt P06730)
# Experiment: Fluorescence polarization competition assay for eIF4E binding potency
# Conditions: inhibition of eIF4E/EDA-m7GDP-ATTO-550 binding; calculated IC50 values, Table 4B; read-out: IC50
# In short: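 Competition of test compound against 20 nM EDA-m^7GDP-ATTO-550 for 75 nM recombinant eIF4E, pre-incubated 5 min, in 20 mM Tris pH 7.5, 100 mM NaCl, 1 mM DTT, 0.02% Tween-20, 1% DMSO. Equilibrated 30 min at room temperature, dark; fluorescence polarization read. IC50 from 8-point, 3-fold dilution series.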
# recombinant eIF4E, sequence (P06730 whole entry): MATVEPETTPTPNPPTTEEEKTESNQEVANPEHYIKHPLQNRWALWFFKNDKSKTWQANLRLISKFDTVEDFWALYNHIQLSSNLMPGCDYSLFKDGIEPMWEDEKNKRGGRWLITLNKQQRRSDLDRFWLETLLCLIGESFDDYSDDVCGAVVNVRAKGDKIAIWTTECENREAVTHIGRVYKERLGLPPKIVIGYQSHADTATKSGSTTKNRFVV
row,Structure (SMILES),pIC50
1,Cc1cc(-c2cc(Cl)ccc2OCCn2c(C)nc3cc(C(F)(F)F)c(N4CCN(CCO)CC4)c(C#N)c3c2=O)c2sc(C)c(C(=O)O)c2n1 [compound 1393],7.88
2,CCc1cc(-c2cc(Cl)ccc2OCCn2c(C)nc3cc(C(F)(F)F)c(CC4CN(C)C4)c(C#N)c3c2=O)c2scc(C(=O)O)c2n1 [compound 1394],8.32
3,Cc1nc2c(N3CCN(CCOC(F)(F)F)CC3)ncc(C#N)c2c(=O)n1CCOc1ccc(Cl)cc1-c1ccnc2c(C(=O)O)csc12 [compound 1395],7.53
4,Cc1nc2c(N3CCN(C4(C(F)F)COC4)CC3)ncc(C#N)c2c(=O)n1CCOc1ccc(Cl)cc1-c1ccnc2c(C(=O)O)csc12 [compound 1397],7.83
5,Cc1nc2cnc(N3CCN(C(C)(C)CCC(F)(F)F)CC3)c(C#N)c2c(=O)n1CCOc1ccc(Cl)cc1-c1ccnc2c(C(=O)O)csc12 [compound 1400],7.56
6,Cc1nc2cnc(N3CCN(C4(CCC(F)(F)F)CC4)CC3)c(C#N)c2c(=O)n1CCOc1ccc(Cl)cc1-c1ccnc2c(C(=O)O)csc12 [compound 1401],7.90
7,Cc1nc2cnc(/C=C/CN(C)CCF)c(C#N)c2c(=O)n1CC#Cc1ccc(Cl)cc1-c1ccnc2c(C(=O)O)csc12 [compound 1402],8.18
8,Cc1nc2cnc(N(C)[C@H]3[C@@H]4CN(CC(F)F)C[C@@H]43)c(C#N)c2c(=O)n1CC#Cc1ccc(Cl)cc1-c1ccnc2c(C(=O)O)csc12 [compound 1403],8.06
9,COC(=O)c1csc2c(-c3cc(Cl)ccc3C#CCn3c(C)nc4cnc(N5CCN(CC(F)F)CC5)c(C#N)c4c3=O)ccnc12 [compound 1404],6.32
10,COC(=O)c1csc2c(-c3cc(Cl)ccc3C#CCn3c(C)nc4cnc(N5CCN(CCOC(F)(F)F)CC5)c(C#N)c4c3=O)ccnc12 [compound 1405],6.20
11,CC(=O)c1csc2c(-c3cc(Cl)ccc3C#CCn3c(C)nc4cnc(N(C)[C@H]5C[C@H]6CC[C@@H](C5)N6CC(F)F)c(C#N)c4c3=O)ccnc12 [compound 1406],7.58
12,Cc1nc2cnc(N(C)[C@@H]3[C@@H]4CN(CC(F)F)C[C@@H]43)c(C#N)c2c(=O)n1CC#Cc1ccc(Cl)cc1-c1ccnc2c(C(=O)O)csc12 [compound 1407],7.61
13,Cc1nc2cnc(N3CCC4(CC3)CN(CC(F)F)C4)c(C#N)c2c(=O)n1CC#Cc1ccc(Cl)cc1-c1ccnc2c(C(=O)NS(=O)(=O)C3COC3)csc12 [compound 1408],7.75
14,Cc1nc2cnc(N3CCC4(CC3)CN(CC(F)F)C4)c(C#N)c2c(=O)n1CC#Cc1ccc(Cl)cc1-c1ccnc2c(C(=O)NS(=O)(=O)c3cccnc3)csc12 [compound 1409],7.97
15,Cc1nc2cnc(N3CCC4(CC3)CN(CC(C)(F)F)C4)c(C#N)c2c(=O)n1CC#Cc1ccc(Cl)cc1-c1ccnc2c(C(=O)NS(=O)(=O)C3COC3)csc12 [compound 1411],7.76
16,Cc1nc2cnc(N3CCC4(CC3)CN(CC(C)(F)F)C4)c(C#N)c2c(=O)n1CC#Cc1ccc(Cl)cc1-c1ccnc2c(C(=O)NS(=O)(=O)c3cccnc3)csc12 [compound 1412],8.17
17,Cc1nc2cnc(N(C)C3(C)CCN(CC(F)F)CC3)c(C#N)c2c(=O)n1CC#Cc1ccc(Cl)cc1-c1ccnc2c(C(=O)O)csc12 [compound 1413],7.29
18,Cc1nc2cnc(N3CCC(C)(N(C)CC(F)F)CC3)c(C#N)c2c(=O)n1CC#Cc1ccc(Cl)cc1-c1ccnc2c(C(=O)O)csc12 [compound 1414],7.82
19,Cc1nc2cnc(C3(C)CCN(C)CC3)c(C#N)c2c(=O)n1CCOc1ccc(Cl)cc1-c1ccnc2c(C(=O)O)csc12 [compound 1415],7.77
20,Cc1cc(-c2cc(Cl)ccc2OCCn2c(C)nc3cc(C(F)(F)F)c(N4CCN(C)CC4)c(C#N)c3c2=O)c2sc(C)c(C(=O)O)c2n1 [compound 1416],7.90
21,Cc1cc(-c2cc(Cl)ccc2OCCn2c(C)nc3cc(C(F)(F)F)c(C4=CCN(C)CC4)c(C#N)c3c2=O)c2sc(C)c(C(=O)O)c2n1 [compound 1417],7.60
22,Cc1cc(-c2cc(Cl)ccc2OCCn2c(C)nc3cnc(N4CCN(C)CC4)c(C#N)c3c2=O)c2sc(C)c(C(=O)O)c2n1 [compound 1418],8.04
23,Cc1cc(-c2cc(Cl)ccc2OCCn2c(C)nc3c(C4COC4)ncc(C#N)c3c2=O)c2scc(C(=O)O)c2n1 [compound 1419],8.17
24,Cc1cc(-c2cc(Cl)ccc2OCCn2c(C)nc3cc(C(F)(F)F)c(N4CC5(CN(C)C5)C4)c(C#N)c3c2=O)c2sc(C)c(C(=O)O)c2n1 [compound 1420],8.20
25,Cc1cc(-c2cc(Cl)ccc2OCCn2c(C)nc3cnc(C4(F)CN(C)C4)c(C#N)c3c2=O)c2scc(C(=O)O)c2n1 [compound 1421],7.44
26,Cc1nc2cnc(N3CCN(C(C)CF)CC3)c(C#N)c2c(=O)n1CCOc1ccc(Cl)cc1-c1ccnc2c(C(=O)O)csc12 (stereo not shown) [compound 1424],7.53
27,Cc1nc2cnc(N3CCN(C4(CCF)CC4)CC3)c(C#N)c2c(=O)n1CCOc1ccc(Cl)cc1-c1ccnc2c(C(=O)O)csc12 [compound 1425],7.89
28,Cc1nc2cnc(C3CCC(N(C)CC(F)(F)F)C3)c(C#N)c2c(=O)n1CCOc1ccc(Cl)cc1-c1ccnc2c(C(=O)O)csc12 (stereo not shown) [compound 1427],7.84

row,Structure (SMILES),pIC50
1,Cc1nc2cnc(N(C)C3CCN(C4(CF)CC4)CC3)c(C#N)c2c(=O)n1CCOc1ccc(Cl)cc1-c1ccnc2c(C(=O)O)csc12 [compound 1428],7.91
2,Cc1nc2cnc(N(C)C3CCN(C(C)(C)CF)CC3)c(C#N)c2c(=O)n1CCOc1ccc(Cl)cc1-c1ccnc2c(C(=O)O)csc12 [compound 1429],7.75
3,Cc1nc2cnc(N(C)C3CCN(C4(C(F)F)CC4)CC3)c(C#N)c2c(=O)n1CCOc1ccc(Cl)cc1-c1ccnc2c(C(=O)O)csc12 [compound 1430],7.64
4,Cc1nc2cnc(N(C)C3CCN(C(C)(C)C(F)F)CC3)c(C#N)c2c(=O)n1CCOc1ccc(Cl)cc1-c1ccnc2c(C(=O)O)csc12 [compound 1431],7.70
5,Cc1nc2cnc(N(C)C3CCN(C(CF)CF)CC3)c(C#N)c2c(=O)n1CCOc1ccc(Cl)cc1-c1ccnc2c(C(=O)O)csc12 [compound 1432],7.67
6,CCN(c1ncc2nc(C)n(CCOc3ccc(Cl)cc3-c3ccnc4c(C(=O)O)csc34)c(=O)c2c1C#N)C1CCN(CC(F)F)CC1 [compound 1433],7.56
7,Cc1nc2cnc(N3CC4(C3)CN(C3CC3(C)C)C4)c(C#N)c2c(=O)n1CCOc1ccc(Cl)cc1-c1ccnc2c(C(=O)O)csc12 (stereo not shown) [compound 1436],7.53
8,Cc1nc2cnc(N3CCN(C4CC4)C(C(F)(F)F)C3)c(C#N)c2c(=O)n1CCOc1ccc(Cl)cc1-c1ccnc2c(C(=O)O)csc12 (stereo not shown) [compound 1438],7.39
9,Cc1nc2cnc(N(C)C3CCN(CC(F)(F)Cl)CC3)c(C#N)c2c(=O)n1CCOc1ccc(Cl)cc1-c1ccnc2c(C(=O)O)csc12 [compound 1441],7.53
10,Cc1nc2cnc(N3CCN(CCCF)CC3)c(C#N)c2c(=O)n1CC#Cc1ccc(Cl)cc1-c1ccnc2c(C(=O)O)csc12 [compound 1457],7.74
11,Cc1nc2cnc(N3CCN(CCCC(F)(F)F)CC3)c(C#N)c2c(=O)n1CC#Cc1ccc(Cl)cc1-c1ccnc2c(C(=O)O)csc12 [compound 1458],7.72
12,Cc1nc2cnc(N3CCN(C)C(CF)C3)c(C#N)c2c(=O)n1CC#Cc1ccc(Cl)cc1-c1ccnc2c(C(=O)O)csc12 (stereo not shown) [compound 1459],7.68
13,Cc1nc2cnc(N3CCN(C)C(COC(F)(F)F)C3)c(C#N)c2c(=O)n1CC#Cc1ccc(Cl)cc1-c1ccnc2c(C(=O)O)csc12 (stereo not shown) [compound 1460],8.10
14,Cc1nc2cnc(C3=CCN(C4CC4)CC3)c(C#N)c2c(=O)n1CC#Cc1ccc(Cl)cc1-c1ccnc2c(C(=O)O)csc12 [compound 1461],7.86
15,Cc1nc2cnc(C3=CCN(CCF)CC3)c(C#N)c2c(=O)n1CC#Cc1ccc(Cl)cc1-c1ccnc2c(C(=O)O)csc12 [compound 1462],7.70
16,Cc1nc2cnc(C3=CCN(CC(F)F)CC3)c(C#N)c2c(=O)n1CC#Cc1ccc(Cl)cc1-c1ccnc2c(C(=O)O)csc12 [compound 1463],7.64
17,Cc1nc2cnc(N3CCN(CCOC(F)F)CC3)c(C#N)c2c(=O)n1CC#Cc1ccc(Cl)cc1-c1ccnc2c(C(=O)O)csc12 [compound 1464],7.87
18,COCC1(N2CCN(c3ncc4nc(C)n(CC#Cc5ccc(Cl)cc5-c5ccnc6c(C(=O)O)csc56)c(=O)c4c3C#N)CC2)CC1 [compound 1465],7.63
19,Cc1nc2cnc(N3CCN(C(C)C(F)F)CC3)c(C#N)c2c(=O)n1CC#Cc1ccc(Cl)cc1-c1ccnc2c(C(=O)O)csc12 (stereo not shown) [compound 1466],7.75
20,Cc1nc2cnc(N3CCC(N4CC(F)(F)C4)CC3)c(C#N)c2c(=O)n1CC#Cc1ccc(Cl)cc1-c1ccnc2c(C(=O)O)csc12 [compound 1467],7.96
21,Cc1nc2cnc(C#CCN(C)CC(F)(F)F)c(C#N)c2c(=O)n1CC#Cc1ccc(Cl)cc1-c1ccnc2c(C(=O)O)csc12 [compound 1468],7.46
22,CCC(F)(CC)CN1CCN(c2ncc3nc(C)n(CCOc4ccc(Cl)cc4-c4ccnc5c(C(=O)O)csc45)c(=O)c3c2C#N)CC1 [compound 1469],7.64
23,Cc1nc2cnc(N3CCN(CC4(F)CC4)CC3)c(C#N)c2c(=O)n1CCOc1ccc(Cl)cc1-c1ccnc2c(C(=O)O)csc12 [compound 1470],7.51
24,Cc1nc2cnc(N3CCN(CC4(C(F)(F)F)CC4)CC3)c(C#N)c2c(=O)n1CCOc1ccc(Cl)cc1-c1ccnc2c(C(=O)O)csc12 [compound 1471],7.85
25,Cc1nc2cnc(N3CCN(CC(C)(C)C(F)(F)F)CC3)c(C#N)c2c(=O)n1CCOc1ccc(Cl)cc1-c1ccnc2c(C(=O)O)csc12 [compound 1472],7.54
26,Cc1nc2cnc(N3CCN(C4C(C)(C)C4(C)C)CC3)c(C#N)c2c(=O)n1CCOc1ccc(Cl)cc1-c1ccnc2c(C(=O)O)csc12 [compound 1473],7.77
27,Cc1nc2cnc(N3CCN(CC(F)(F)Cl)CC3)c(C#N)c2c(=O)n1CCOc1ccc(Cl)cc1-c1ccnc2c(C(=O)O)csc12 [compound 1474],7.86
